Reference: patent US6576260B2 (Gruenenthal GmbH, priority 1999, dated 2003)

Experiment: Intrinsic active substance release in water (USP <1087> intrinsic dissolution)
Format: physicochemical
Settings: demineralized water, 37° C.±0.5° C.; gradient of cumulative release up to 10% released
Experimental: The intrinsic release of each of the two active substances is calculated from the gradient of the cumulative active substance release up to and including the time at which 10% of the […] have been released. It is given below as the release rate in mg·min^−1·cm^−2.

## COc1cccc([C@@]2(O)CCCC[C@@H]2CN(C)C)c1.Cl (racemic) [Tramadol hydrochloride, (1RS,2RS)-2-[(dimethylamino)methyl]-1-(3-methoxyphenyl)cyclohexanol hydrochloride]
  Intrinsic release in water (release rate): 21 mg · min^−1 · cm^−2

## COc1cccc(C2(O)CCCCC2CN(C)C)c1.O=C1NS(=O)(=O)c2ccccc21 (centres unmarked) [Tramadol saccharinate, tramadol saccharinate]
  Intrinsic release in water (release rate): 2 mg · min^−1 · cm^−2
